Assay results from patent US20110217309A1, “BIOLOGICAL MARKERS PREDICTIVE OF ANTI-CANCER RESPONSE TO INSULIN-LIKE GROWTH FACTOR-1 RECEPTOR KINASE INHIBITORS” (priority 2010, published 2011).

Experiments:
[1] = system: OVCAR-4, SKOV-3, OVCAR-3, OVCAR-8, CaOV3-5, and IGROV-1; assay: Cell Titer Glo proliferation assay, K-RAS wild-type OvCa lines; type: cell-based, human; conditions: other six OvCa cell lines of the panel, WT KRAS, 72 hours
Excerpt: KRAS mutation status, as reported by the Sanger Wellcome Trust, is noted. Results shown are typical of three or more independent experiments. Grey symbols indicate data for K-RAS mutant (mt) cell lines OVCAR-5 and MDAH2774. Black symbols indicate data for K-RAS wild-type (wt) cell lines OVCAR-4, SKOV-3, OVCAR-3, OVCAR-8, CaOV3-5, and IGROV-1. Cell Lines and Culture. Human cancer cell lines, were obtained from American Type Culture Collection (ATCC, Manassas, Va.), or the following additional indicated sources, and cultured in media as described. […] The basis of the assay is a luminescent quantitation of ATP present in a cell culture plate well. […] The assay utilizes a substrate that binds ATP to produce a luminescent signal, which can be read on a luminometer. […] Results were calculated as a fraction of the DMSO controlled cells.

A2780 = assay: Cell Titer Glo proliferation assay, 88 cell line panel; type: cell-based, human; conditions: A2780 ovarian cancer, PTEN mutant, 72 hours
Procedure: (§1) Proliferation Assay. […] The basis of the assay is a luminescent quantitation of ATP present in a cell culture plate well. In essence, the greater the number of viable cells in the well, the greater the level of ATP present. The assay utilizes a substrate that binds ATP to produce a luminescent signal, which can be read on a luminometer. Unless otherwise noted, the manufacturer's instructions were followed exactly. Briefly, on Day 1, cells were plated in 120 μl of 10% serum-containing growth media at a density of 4000 cells/well in a white polystyrene 96 well assay plate. […] After 72 h incubation with the inhibitor, the cells were assayed. Results were calculated as a fraction of the DMSO controlled cells.
(§2) This included cell lines representing ovarian cancer (A2780 and EFO-27), SCCHN (HSC-4), SCLC (NCI-H446), CRC (KM12), lymphoma (MC116), breast cancer (BT549 and HCC70), and prostate cancer (PC3).

EFO-27 = assay: as above; type: cell-based, human; conditions: EFO-27 ovarian cancer, PTEN mutant, 72 hours
Procedure: as §1, §2

HCC70 = assay: as above; type: cell-based, human; conditions: HCC70 breast cancer, PTEN mutant, 72 hours
Procedure: as §1, §2

HSC-4 = assay: as above; type: cell-based, human; conditions: HSC-4 SCCHN, PTEN mutant, 72 hours
Procedure: as §1, §2

PC3 = assay: as above; type: cell-based, human; conditions: PC3 prostate cancer, PTEN mutant, 72 hours
Procedure: as §1, §2

H295R tumors = assay: Tumor xenograft study; conditions: treatment in vivo for 10-14 days
Colo205 tumors = assay: Tumor xenograft study; conditions: treatment in vivo for 10-14 days
[2] = system: MDAH-2774 ovarian tumor cells; assay: Caspase 3/7 Glo apoptosis assay; type: cell-based, human; conditions: with 10 nM pactitaxel
Procedure: Measurement of apoptosis: Induction of apoptosis as measured by increased Caspase 3/7 activity was determined using the Caspase 3/7 Glo assay (Promega Corporation, Madison, Wis.). Cell lines were seeded at a density of 3000 cells per well in a 96-well plate. 24 hours after plating, cells were dosed with compounds. The signal for Caspase 3/7 Glo was determined 24 hours after dosing. The caspase 3/7 activity was normalized to cell number per well, using a parallel plate treated with Cell Titer Glo (Promega Corporation, Madison, Wis.). Signal for each well was normalized using the following formula: Caspase 3/7 Glo luminescence units/Cell Titer Glo fraction of DMSO control. All graphs were generated using PRISM® software (Graphpad Software, San Diego, Calif.).

Akt = assay: Phosphorylation of Akt (pAKT levels); type: cell-based; conditions: OSI-906, in the presence or absence of pactitaxel (100, 30, 10, 3, 1 nM)
Procedure: The dotted line in the plot represents the calculated theoretical expectation if the combination was additive in nature, and was determined using the Bliss model for additivity. […] C.
The dotted line in the plot represents the calculated theoretical result if the combination was additive in nature, and was determined using the Bliss model for additivity.

[3] = system: broad panel (n=116) of additional RTKs and other protein kinases; conditions: at 1 μM; cited from earlier work

## C[C@]1(O)C[C@@H](c2nc(-c3ccc4ccc(-c5ccccc5)nc4c3)c3c(N)nccn32)C1 [OSI-906, cis-3-[8-amino-1-(2-phenyl-quinolin-7-yl)-imidazo[1,5-a]pyrazin-3-yl]-1-methyl-cyclobutanol]
[1]
  sensitivity of proliferation: relatively insensitive
A2780
  sensitivity to OSI-906: insensitive (insensitive (EC50>10 μM))
EFO-27
  sensitivity to OSI-906: insensitive (insensitive (EC50>10 μM))
HCC70
  sensitivity to OSI-906: insensitive (insensitive (EC50>10 μM))
HSC-4
  sensitivity to OSI-906: insensitive (insensitive (EC50>10 μM))
PC3
  sensitivity to OSI-906: insensitive (insensitive (EC50>10 μM))
H295R tumors
  % TGI (tumor growth inhibition): 85%
Colo205 tumors
  % TGI (tumor growth inhibition): 90%
[2]
  induction of apoptosis: enhances the induction of apoptosis
Akt
  phosphorylation of Akt (pAKT levels): decrease
[3]
  inhibition of additional kinases: < 50%
